Measurements: patent publication US20160200769A1, “Compound, Transitmycin, Effective Against Bacterial and Viral Pathogens” (INDIAN COUNCIL OF MEDICAL RESEARCH, priority 2013, published 2016)
*1 amine or outer side, *2 acyl side, *3 side chain or, on linkers, in order; H or OH if unused. Where a SMILES comes first, the peptide text is derived from it. Bridges are numbered along the chain shown (N, C = ends). Roman numbers before positions name the chains, in order. [ ]: non-standard residue; d: D form. Actinocin(1to9) = Cc1c2oc3c(C)ccc(C(=O)[*:2])c3nc-2c(C(=O)[*:1])c(N)c1=O; Pro(4-oxo) = O=C1CN[C@H](C(=O)O)C1; NMeV = CN[C@H](C(=O)O)C(C)C; Sar = CNCC(=O)O

Test system: M. tuberculosis SHRE resistant
Experiment: microbe, parasite or virus in culture
Type: cell-based
Conditions: Mycobacterium tuberculosis

Cc1c2oc3c(C)ccc(C(=O)N[C@@H]4C(=O)N[C@@H](C(C)C)C(=O)N5CCC[C@H]5C(=O)N(C)CC(=O)N(C)[C@@H](C(C)C)C(=O)O[C@@H]4C)c3nc-2c(C(=O)N[C@@H]2C(=O)N[C@@H](C(C)C)C(=O)N3CC(=O)C[C@H]3C(=O)N(C)CC(=O)N(C)[C@@H](C(C)C)C(=O)O[C@@H]2C)c(N)c1=O [compound of formula (I), Transitmycin] (I: TV[Pro(4-oxo)][Sar][NMeV] / II: TVP[Sar][NMeV]; ester I:1-I:C, II:1-II:C; linker I:N-II:N via Actinocin(1to9))
MIC: 6.25 µg/mL
